In PubChem BioAssay AID1259407 (Chemical Carcinogenesis Research Information System (CCRIS), 2018):
Calls of active or inactive are those of the source. The rule behind the calls is not given here.

Tested on: CCRIS mutagenicity, Ames/micronucleus/aberration tests
Test: CCRIS mutagenicity studies
[1] = Test System: AMES SALMONELLA TYPHIMURIUM, Strain/Indicator: TA98, Metabolic Activation: NONE, Method: STANDARD PLATE
[2] = Test System: AMES SALMONELLA TYPHIMURIUM, Strain/Indicator: TA100, Metabolic Activation: NONE, Method: STANDARD PLATE
[3] = Test System: AMES SALMONELLA TYPHIMURIUM, Strain/Indicator: TA1535, Metabolic Activation: NONE, Method: STANDARD PLATE
[4] = Test System: AMES SALMONELLA TYPHIMURIUM, Strain/Indicator: TA98, Metabolic Activation: RAT, LIVER, S-9, AROCLOR 1254, Method: STANDARD PLATE

## c1ccc2sncc2c1
[1]
  mutagenic call: inactive; negative
Test System: AMES SALMONELLA TYPHIMURIUM, Strain/Indicator: TA98, Metabolic Activation: S-9, Method: STANDARD PLATE
  mutagenic call: inactive; negative
[2]
  mutagenic call: inactive; negative
Test System: AMES SALMONELLA TYPHIMURIUM, Strain/Indicator: TA100, Metabolic Activation: S-9, Method: STANDARD PLATE
  mutagenic call: inactive; negative
[3]
  mutagenic call: inactive; negative
Test System: AMES SALMONELLA TYPHIMURIUM, Strain/Indicator: TA1535, Metabolic Activation: S-9, Method: STANDARD PLATE
  mutagenic call: inactive; negative
Test System: AMES SALMONELLA TYPHIMURIUM, Strain/Indicator: TA1537, Metabolic Activation: NONE, Method: STANDARD PLATE
  mutagenic call: inactive; negative
Test System: AMES SALMONELLA TYPHIMURIUM, Strain/Indicator: TA1537, Metabolic Activation: S-9, Method: STANDARD PLATE
  mutagenic call: inactive; negative

## CCCCC(C)=O
Test System: CHINESE HAMSTER V-79, Strain/Indicator: V-79 (HPRT)/6-THIOGUANINE, Metabolic Activation: NONE, Method: STANDARD PLATE
  mutagenic call: inactive; negative
Test System: CHINESE HAMSTER V-79, Strain/Indicator: V-79 (HPRT)/6-THIOGUANINE, Metabolic Activation: RAT LIVER S-9, Method: STANDARD PLATE
  mutagenic call: inactive; negative

## Cc1nc2c(c3[nH]c4ccccc4c13)C(=O)C=CC2=O
Test System: AMES SALMONELLA TYPHIMURIUM, Strain/Indicator: TA97, Metabolic Activation: NONE, Method: STANDARD PLATE
  mutagenic call: inactive; negative
Test System: AMES SALMONELLA TYPHIMURIUM, Strain/Indicator: TA97, Metabolic Activation: RAT, LIVER, S-9, AROCLOR 1254, Method: STANDARD PLATE
  mutagenic call: active; positive
[1]
  mutagenic call: active; positive
[4]
  mutagenic call: active; positive
[2]
  mutagenic call: inactive; negative
Test System: AMES SALMONELLA TYPHIMURIUM, Strain/Indicator: TA100, Metabolic Activation: RAT, LIVER, S-9, AROCLOR 1254, Method: STANDARD PLATE
  mutagenic call: inactive; negative
Test System: AMES SALMONELLA TYPHIMURIUM, Strain/Indicator: TA102, Metabolic Activation: NONE, Method: STANDARD PLATE
  mutagenic call: inactive; negative
Test System: AMES SALMONELLA TYPHIMURIUM, Strain/Indicator: TA102, Metabolic Activation: RAT, LIVER, S-9, AROCLOR 1254, Method: STANDARD PLATE
  mutagenic call: inactive; negative

## CC1(C)CCC[C@]2(C)C(C=O)C(C=O)=CC[C@@H]12 (some centres undefined)
[4]
  mutagenic call: inactive; negative
[2]
  mutagenic call: inactive; negative
Test System: AMES SALMONELLA TYPHIMURIUM, Strain/Indicator: TA2637, Metabolic Activation: NONE, Method: STANDARD PLATE
  mutagenic call: inactive; negative
Test System: CHINESE HAMSTER V-79, Strain/Indicator: V-79/6-THIOGUANINE (HGPRT), Metabolic Activation: NONE
  mutagenic call: inactive; negative

## CCN(N=O)C(=O)N(C)C
[3]
  mutagenic call: active; positive
Test System: AMES SALMONELLA TYPHIMURIUM, Strain/Indicator: TA1535, Metabolic Activation: RAT, LIVER, S-9, BETA-NAPHTHOFLAVONE AND PHENOBARBITAL, Method: STANDARD PLATE
  mutagenic call: active; positive
